Where two headings read alike, the source gives them in different places.
What was measured:
[1] = Multiple rising dose Phase 1 PK, healthy subjects, day 14 (young males unless stated); assay type: in vivo, human; settings: for CL renal: urine, read-out: renal clearance CLR at steady state
From the text: The steady state AUC geometric mean accumulation ratios were ˜2 in young male subjects and ˜2.8 in elderly subjects (male and female).
Although exposures were similar in middle-aged males when compared to young males, plasma concentrations were higher in elderly compared to middle-aged and young subjects. […] Furthermore, the steady state AUC geometric mean accumulation ratios were ˜2 in young males and ˜2.8 in the elderly.

[2] = molecular target: T1, β1-AR (Homo sapiens, UniProt P08588); experiment: Competition binding assay, recombinant β1-AR
T1 construct: expressed in transfected cells; membranes prepared from them
T1 sequence (P08588 whole entry): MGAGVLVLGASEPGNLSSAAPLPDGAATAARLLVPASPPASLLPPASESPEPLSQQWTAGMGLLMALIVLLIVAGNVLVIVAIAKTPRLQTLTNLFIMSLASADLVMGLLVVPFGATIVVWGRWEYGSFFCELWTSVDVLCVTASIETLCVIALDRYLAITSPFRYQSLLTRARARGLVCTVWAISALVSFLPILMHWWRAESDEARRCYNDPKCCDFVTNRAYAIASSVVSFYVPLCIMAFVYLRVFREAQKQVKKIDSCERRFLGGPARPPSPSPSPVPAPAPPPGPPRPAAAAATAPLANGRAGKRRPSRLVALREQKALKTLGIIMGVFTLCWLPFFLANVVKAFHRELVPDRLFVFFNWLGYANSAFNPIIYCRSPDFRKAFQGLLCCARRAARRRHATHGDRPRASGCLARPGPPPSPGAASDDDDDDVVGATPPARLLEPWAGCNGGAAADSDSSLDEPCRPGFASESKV

SMILES: O=C(Nc1ccc(C[C@@H]2CC[C@H]([C@H](O)c3ccccc3)N2)cc1)[C@@H]1CCc2nccc(=O)n21 [Vibegron, (6S)-N-[4-[[(2S,5R)-5-[(R)-hydroxy(phenyl)methyl]pyrrolidin-2-yl]methyl]phenyl]-4-oxo-7,8-dihydro-6H-pyrrolo[1,2-a]pyrimidine-6-carboxamide]
- Ctrough ([1]; 25 mg QD): 5.07 ± 0.711 ng/mL
- Ctrough ([1]; 50 mg QD): 15.2 ± 5.07 ng/mL
- Ctrough ([1]; 50 mg QD, Japanese): 16.5 ± 6.05 ng/mL
- Ctrough ([1]; 100 mg QD): 31.9 ± 11.5 ng/mL
- steady state Cmax, elderly vs young males ([1]; 100 mg QD): ~1.3 fold
- Ctrough ([1]; 100 mg QD, elderly male and female): 54.2 ± 15.3 ng/mL
- fe0-24 hr, ss ([1]; 100 mg, elderly): ~17%
- Cmax ([1]; 150 mg QD, middle-aged female, fasted): 346 ± 139 ng/mL
- fe0-24 hr, ss ([1]; 100 and 150 mg, young males): ~14%
- steady state exposure (AUC0-24) higher, elderly Japanese vs non-Japanese ([1]; Day 14): 35%
- AUC(0-t) ([1]; both sexes, human, plasma, oral, 100 mg, 100 mg QD, elderly Japanese, read-out: AUC0-24): 2920 ± 693 ng·h/mL
- half-life ([1]; both sexes, human, plasma, oral, 100 mg, 100 mg QD, elderly Japanese, read-out: t1/2 (converted)): 75.1 ± 3.9 h
- AUC(0-t) ([1]; both sexes, human, plasma, oral, 100 mg, 100 mg QD, elderly male and female, read-out: AUC0-24): 2230 ± 671 ng·h/mL
- Cmax ([1]; both sexes, human, plasma, oral, 100 mg, 100 mg QD, elderly male and female, read-out: Cmax): 224 ± 92 ng/mL
- half-life ([1]; both sexes, human, plasma, oral, 100 mg, 100 mg QD, elderly male and female, read-out: t1/2 (converted)): 88.4 ± 10.7 h
- CL renal ([1]; both sexes, human, oral, 100 mg, elderly male and female): 127 mL/min
- Cmax higher than healthy young males ([1]; elderly and females): 50-70%
- AUC(0-t) ([1]; female, human, plasma, oral, 100 mg, elderly females, read-out: steady state AUC0-24hr): 2620 ng·h/mL
- Cmax ([1]; female, human, plasma, oral, 100 mg, elderly females, read-out: steady state Cmax): 278 ng/mL
- AUC(0-t) ([1]; female, human, plasma, oral, 150 mg, 150 mg QD, middle-aged female, fasted, read-out: AUC0-24): 3180 ± 925 ng·h/mL
- Cmax ([1]; female, human, plasma, oral, 150 mg, 150 mg QD, middle-aged female, fasted, read-out: Cmax): 246 ± 139 ng/mL
- half-life ([1]; female, human, plasma, oral, 150 mg, 150 mg QD, middle-aged female, read-out: t1/2 (converted)): 83.1 ± 17.2 h
- Cmax higher, elderly Japanese vs non-Japanese ([1]; human, in vivo): 82%
- steady state AUC, middle-aged females vs middle-aged males ([1]; human, in vivo): ~1.5 fold
- steady state exposure higher, Japanese vs non-Japanese young males ([1]; human, in vivo): ~30%
- half-life ([1]; human, plasma, oral, young and elderly subjects, read-out: terminal t1/2): 59 to 94 h
- AUC(0-t) ([1]; male, human, plasma, oral, 25 mg, 25 mg QD, read-out: AUC0-24): 164 ng·h/mL
- Cmax ([1]; male, human, plasma, oral, 25 mg, 25 mg QD, read-out: Cmax): 15.6 ± 6.93 ng/mL
- half-life ([1]; male, human, plasma, oral, 25 mg, 25 mg QD, read-out: t1/2 (converted)): 94 ± 9.6 h
- AUC(0-t) ([1]; male, human, plasma, oral, 50 mg, 50 mg QD, Japanese, read-out: AUC0-24): 613 ± 296 ng·h/mL
- Cmax ([1]; male, human, plasma, oral, 50 mg, 50 mg QD, Japanese, read-out: Cmax): 56.9 ± 34.2 ng/mL
- half-life ([1]; male, human, plasma, oral, 50 mg, 50 mg QD, Japanese, read-out: t1/2 (converted)): 69.4 ± 6.6 h
- AUC(0-t) ([1]; male, human, plasma, oral, 50 mg, 50 mg QD, read-out: AUC0-24): 507 ± 176 ng·h/mL
- Cmax ([1]; male, human, plasma, oral, 50 mg, 50 mg QD, read-out: Cmax): 41.5 ± 12.3 ng/mL
- half-life ([1]; male, human, plasma, oral, 50 mg, 50 mg QD, read-out: t1/2 (converted)): 77.2 ± 8.9 h
- AUC(0-t) ([1]; male, human, plasma, oral, 100 mg, 100 mg QD, Japanese, read-out: AUC0-24): 1710 ± 542 ng·h/mL
- Cmax ([1]; male, human, plasma, oral, 100 mg, 100 mg QD, Japanese, read-out: Cmax): 180 ± 111 ng/mL
- half-life ([1]; male, human, plasma, oral, 100 mg, 100 mg QD, Japanese, read-out: t1/2 (converted)): 56.8 ± 19.2 h
- AUC(0-t) ([1]; male, human, plasma, oral, 100 mg, 100 mg QD, read-out: AUC0-24): 1280 ± 529 ng·h/mL
- Cmax ([1]; male, human, plasma, oral, 100 mg, 100 mg QD, read-out: Cmax): 169 ± 80.9 ng/mL
- half-life ([1]; male, human, plasma, oral, 100 mg, 100 mg QD, read-out: t1/2 (converted)): 79.7 ± 11.5 h
- half-life ([1]; male, human, plasma, oral, 150 mg, 150 mg QD, middle-aged male, after 28 days, read-out: t1/2 (converted)): 72.7 h
- AUC(0-t) ([1]; male, human, plasma, oral, 150 mg, 150 mg QD, middle-aged male, read-out: AUC0-24): 2170 ± 452 ng·h/mL
- Cmax ([1]; male, human, plasma, oral, 150 mg, 150 mg QD, middle-aged male, read-out: Cmax): 293 ± 67.1 ng/mL
- AUC(0-t) ([1]; male, human, plasma, oral, 150 mg, 150 mg QD, read-out: AUC0-24): 2280 ± 1140 ng·h/mL
- Cmax ([1]; male, human, plasma, oral, 150 mg, 150 mg QD, read-out: Cmax): 305 ± 215 ng/mL
- half-life ([1]; male, human, plasma, oral, 150 mg, 150 mg QD, read-out: t1/2 (converted)): 79.2 ± 9.2 h
- AUC(0-t) ([1]; male, human, plasma, oral, 200 mg, 200 mg QD, Japanese, read-out: AUC0-24): 4370 ± 618 ng·h/mL
- Cmax ([1]; male, human, plasma, oral, 200 mg, 200 mg QD, Japanese, read-out: Cmax): 631 ± 154 ng/mL
- half-life ([1]; male, human, plasma, oral, 200 mg, 200 mg QD, Japanese, read-out: t1/2 (converted)): 59.5 ± 1.9 h
- AUC(0-t) ([1]; male, human, plasma, oral, 200 mg, 200 mg QD, read-out: AUC0-24): 3200 ± 1120 ng·h/mL
- Cmax ([1]; male, human, plasma, oral, 200 mg, 200 mg QD, read-out: Cmax): 313 ± 168 ng/mL
- half-life ([1]; male, human, plasma, oral, 200 mg, 200 mg QD, read-out: t1/2 (converted)): 64.7 ± 6.5 h
- AUC(0-t) ([1]; male, human, plasma, oral, 300 mg, 300 mg QD, read-out: AUC0-24): 6980 ± 1040 ng·h/mL
- Cmax ([1]; male, human, plasma, oral, 300 mg, 300 mg QD, read-out: Cmax): 733 ± 164 ng/mL
- half-life ([1]; male, human, plasma, oral, 300 mg, 300 mg QD, read-out: t1/2 (converted)): 61.7 ± 7.3 h
- AUC(0-t) ([1]; male, human, plasma, oral, 400 mg, 400 mg QD, read-out: AUC0-24): 10500 ± 2140 ng·h/mL
- Cmax ([1]; male, human, plasma, oral, 400 mg, 400 mg QD, read-out: Cmax): 1400 ± 257 ng/mL
- half-life ([1]; male, human, plasma, oral, 400 mg, 400 mg QD, read-out: t1/2 (converted)): 58.9 ± 5.9 h
- CL renal ([1]; male, human, oral, young males, all dose levels): 150 to 187 mL/min
- time to steady state ([1]; once daily dosing): ≤ 7 days
- AUC higher in females than males ([1]; regardless of age): 50%
- binding to β1-AR [2]: does not bind
